Laboratory results taken from US10376476B2, “Panicein compounds, compositions and uses thereof” (CENTRE NATIONAL DE LA RECHERCHE SCIENTIFIQUE, priority 2014, dated 2019).

What was measured:
[1] = biological target: T1, wild-type Patched (hPtc) expressed in yeasts (Homo sapiens, UniProt Q13635); assay: Doxorubicin efflux from yeasts (intracellular dxr fluorescence); type: cell-based; settings: for Efflux (%) of dxr: WT-hPtc-yeasts, 10 μM paniceins, 10 min, 5 mM 2-deoxy-D-glucose; for dxr fluorescence in hPtc-expressing yeasts after efflux: 10 μM paniceins during efflux, contrary to control yeasts
T1 construct: MAP; expressed in transfected cells; host or cells: Saccharomyces cerevisiae K699
T1 sequence (Q13635 1-1447): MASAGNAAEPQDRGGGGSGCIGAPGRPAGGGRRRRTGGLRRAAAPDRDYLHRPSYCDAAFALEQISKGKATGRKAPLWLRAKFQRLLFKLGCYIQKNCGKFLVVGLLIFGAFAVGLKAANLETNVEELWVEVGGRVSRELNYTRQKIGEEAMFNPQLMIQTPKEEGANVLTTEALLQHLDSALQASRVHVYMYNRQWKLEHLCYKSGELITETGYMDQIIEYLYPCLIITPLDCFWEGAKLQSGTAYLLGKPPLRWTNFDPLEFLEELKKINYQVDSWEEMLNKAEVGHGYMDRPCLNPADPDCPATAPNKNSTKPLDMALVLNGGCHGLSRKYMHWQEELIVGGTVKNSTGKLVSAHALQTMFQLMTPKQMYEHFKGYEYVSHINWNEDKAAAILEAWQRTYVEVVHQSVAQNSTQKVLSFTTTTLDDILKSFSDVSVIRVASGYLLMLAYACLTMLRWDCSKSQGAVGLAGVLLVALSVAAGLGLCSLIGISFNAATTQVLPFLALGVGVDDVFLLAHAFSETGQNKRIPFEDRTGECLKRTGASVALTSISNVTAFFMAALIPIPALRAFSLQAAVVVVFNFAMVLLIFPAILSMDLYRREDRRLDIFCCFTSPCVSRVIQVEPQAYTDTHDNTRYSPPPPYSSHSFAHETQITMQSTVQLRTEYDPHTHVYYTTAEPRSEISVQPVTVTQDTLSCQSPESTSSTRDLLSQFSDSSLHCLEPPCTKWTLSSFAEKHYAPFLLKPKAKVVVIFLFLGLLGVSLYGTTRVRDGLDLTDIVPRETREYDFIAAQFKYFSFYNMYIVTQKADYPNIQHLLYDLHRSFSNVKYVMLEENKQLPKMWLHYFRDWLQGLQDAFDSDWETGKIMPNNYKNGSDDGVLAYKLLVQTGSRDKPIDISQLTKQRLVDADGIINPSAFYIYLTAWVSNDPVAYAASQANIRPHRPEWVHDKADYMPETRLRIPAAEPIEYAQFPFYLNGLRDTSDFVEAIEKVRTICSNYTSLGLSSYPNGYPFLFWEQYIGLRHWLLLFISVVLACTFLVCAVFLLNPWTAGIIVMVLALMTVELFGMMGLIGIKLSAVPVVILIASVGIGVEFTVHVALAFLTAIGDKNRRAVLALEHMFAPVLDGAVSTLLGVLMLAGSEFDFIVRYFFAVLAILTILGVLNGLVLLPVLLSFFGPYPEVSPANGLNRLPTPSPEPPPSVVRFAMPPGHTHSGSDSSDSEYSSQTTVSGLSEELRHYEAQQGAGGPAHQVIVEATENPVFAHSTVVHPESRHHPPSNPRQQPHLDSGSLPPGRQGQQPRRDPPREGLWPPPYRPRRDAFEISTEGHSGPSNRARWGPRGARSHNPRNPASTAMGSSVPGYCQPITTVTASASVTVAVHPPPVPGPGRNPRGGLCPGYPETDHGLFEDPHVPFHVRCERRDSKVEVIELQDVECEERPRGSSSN
Method: (§1) A. Compound P5 inhibits doxorubicin efflux from melanoma cells MeWo and A375. Cells were grown on cover-slips, incubated for 2 hour at 37° C. with 10 μM doxorubicin and quickly rinsed with phosphate buffer (pH 7.4). One cover-slip of each cell line was immediately fixed for doxorubicin charge control. The other cover-slips were incubated with buffer supplemented with DMSO or 10 μM of compound P5 30 min under gentle shaking and immediately fixed. Dxr intracellular fluorescence was visualized by epifluorescence and analyzed using Image J software on more than 30 cells of 3 different fields for each condition. The results were analyzed using the Student t test in which significance is attained at P<0.05 (**: P<0.005, ***: P<0.0005). B. Paniceins inhibit doxorubicin efflux from Patched-expressing yeasts. Yeasts expressing wild-type Patched (hPtc, in black), mutant Patched G509VD513Y (hPtcVXXXY, in grey), and control yeasts (in white) were incubated in buffer supplemented with 5 mM of 2-deoxy-D-glucose and 10 μM dxr for 2 hours at 4° C. After centrifugation and supernatant removing, one sample was immediately fixed for charge control and the other samples were resuspended in buffer containing 5 mM of 2-deoxy-D-glucose supplemented with DMSO or 10 μM of paniceins 10 minutes at 25° C. with gentle shaking. After centrifugation and supernatant removing, samples were fixed and deposited on coverslips for epifluorescence microscopy observation. Dxr intracellular fluorescence quantification was carried out using Image J software on more than 30 yeasts on 3 different fields for each condition. The results were analyzed using the Student t test in which significance is attained at P<0.05 (*).
On yeasts: Yeasts expressing Patched (hPtc), mutant Patched (hPtcG509VD513Y), or control yeasts were washed with cold water, resuspended at an OD600 of 10 in Hepes-NaOH buffer (pH 7.0) supplemented with 5 mM of 2-deoxy-D-glucose, and incubated with 10 μM doxorubicin for 2 hours at 4° C. in the cold room on a rotating wheel protected from light. Yeasts were centrifuged and the supernatant was removed. One sample was immediately fixed with 4% paraformaldehyde for doxorubicin loading control. The other samples were resuspended in Hepes-NaOH buffer (pH 7.0) containing 5 mM of 2-deoxy-D-glucose supplemented with DMSO or 10 μM of paniceins, and incubated 10 minutes at 20° C. with gentle shaking in a Benchmark Multi-therm shaker protected from light. Samples were centrifuged for 1 minute at 18,000 g, supernatants were removed and yeasts were fixed with 4% paraformaldehyde. 10 μL of each sample were deposited on a coverslip and observed by epifluorescence microscopy using an objective 63x and filters for Alexa 594. Quantification of doxorubicin intracellular fluorescence was carried out using Image J software on more than 30 yeasts on 3 different fields for each condition. The results were analyzed using the Student t test in which significance is attained at P <0.05.
In order to see if Paniceins inhibit dxr efflux through Patched inhibition, inventors compared dxr efflux on yeasts over-expressing human Patched and control yeasts. After loading with dxr, yeasts were centrifuged and fixed for dxr loading control (LC), or resuspended in buffer supplemented with DMSO or paniceins for efflux measurements. After 10 min a 20° C., yeasts were collected, fixed and deposited on cover-slips. 2-deoxy-D-glucose was added in buffer during loading and efflux in order to inhibit ATP-binding cassette (ABC) transporters. Dxr fluorescence intensity of at least 30 yeasts was measured for each experiment. FIGS. 6A and 12A show the mean fluorescence intensity of 3 independent experiments. […] This was confirmed using yeasts over-expressing Patched mutant VXXXY. […] Yeasts over-expressing hPtcVXXXY are less resistance to growth inhibition by dxr than yeasts over-expressing wild-type hPtc (Bidet et al., 2012).

control yeasts = assay: as above; type: cell-based, Saccharomyces cerevisiae; settings: 10 μM paniceins, 10 min, 5 mM 2-deoxy-D-glucose
Method: as §1
On yeasts: Yeasts expressing Patched (hPtc), mutant Patched (hPtcG509VD513Y), or control yeasts were washed with cold water, resuspended at an OD600 of 10 in Hepes-NaOH buffer (pH 7.0) supplemented with 5 mM of 2-deoxy-D-glucose, and incubated with 10 μM doxorubicin for 2 hours at 4° C. in the cold room on a rotating wheel protected from light. Yeasts were centrifuged and the supernatant was removed. One sample was immediately fixed with 4% paraformaldehyde for doxorubicin loading control. […] Quantification of doxorubicin intracellular fluorescence was carried out using Image J software on more than 30 yeasts on 3 different fields for each condition. The results were analyzed using the Student t test in which significance is attained at P <0.05.
In order to see if Paniceins inhibit dxr efflux through Patched inhibition, inventors compared dxr efflux on yeasts over-expressing human Patched and control yeasts. […] Dxr fluorescence intensity of at least 30 yeasts was measured for each experiment. FIGS. 6A and 12A show the mean fluorescence intensity of 3 independent experiments. […]

Row | Compound | Efflux (%) of dxr [1] [%] | Efflux (%) of dxr (control yeasts) [%] | dxr fluorescence in hPtc-expressing yeasts after efflux [1]
1 | C/C(=C\Cc1cc(O)ccc1O)CCc1c(C)c(O)c(O)c(C=O)c1C [P2, Panicein C] | 51 | 20 | 
2 | C/C(=C\Cc1cc(O)ccc1O)CCc1c(C)cc(O)c(C=O)c1C [P3, Panicein B3] | 46 | 25 | 
3 | Cc1cc(O)c(C=O)c(C)c1CCC1(C)C=Cc2cc(O)ccc2O1 (stereo not shown) [P4, Panicein B2] | 46 | 29 | significantly higher amounts of dxr fluorescence
4 | COc1cc(C)c(CC/C(C)=C/Cc2cc(O)ccc2O)c(C)c1C [P5, Panicein A hydroquinone] | 40 | 39 | significantly higher amounts of dxr fluorescence
